Experimental data reported in article PMC10439028, “SGLT5 is the renal transporter for 1,5-anhydroglucitol, a major player in two rare forms of neutropenia” (Cellular and Molecular Life Sciences: CMLS, 2023).

Target: T1, mouse SGLT5 (Mus musculus, UniProt Q5SWY8)
T1 construct: expressed in transfected cells; host or cells: HEK293T
T1 sequence (Q5SWY8 1-596): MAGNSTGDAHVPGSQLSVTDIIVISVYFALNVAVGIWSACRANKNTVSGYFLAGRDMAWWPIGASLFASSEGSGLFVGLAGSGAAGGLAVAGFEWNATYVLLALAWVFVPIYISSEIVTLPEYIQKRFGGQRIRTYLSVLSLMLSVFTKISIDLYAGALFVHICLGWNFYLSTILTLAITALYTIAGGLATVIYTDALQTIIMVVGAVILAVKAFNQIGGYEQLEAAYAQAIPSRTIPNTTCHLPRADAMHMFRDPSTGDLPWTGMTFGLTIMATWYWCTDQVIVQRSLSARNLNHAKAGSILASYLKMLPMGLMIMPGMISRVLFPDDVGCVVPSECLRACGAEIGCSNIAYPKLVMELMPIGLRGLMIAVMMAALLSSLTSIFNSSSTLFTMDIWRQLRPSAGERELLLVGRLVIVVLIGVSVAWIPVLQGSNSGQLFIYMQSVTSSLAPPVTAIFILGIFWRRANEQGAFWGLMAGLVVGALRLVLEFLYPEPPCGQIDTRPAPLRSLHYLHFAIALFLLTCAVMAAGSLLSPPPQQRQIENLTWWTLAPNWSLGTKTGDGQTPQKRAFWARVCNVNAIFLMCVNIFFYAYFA
Assay: Radioactive uptake assay (saturation kinetics) in HEK293T cells expressing mouse SGLT5
Assay type: cell-based
Method: For a typical transporter experiment we proceeded as follows. […] To minimize cell loss during the various washing steps in the radioactive uptake experiments, the wells where the cells were seeded were previously coated with poly- D-lysine, which improved their adhesion to the plastic surface of the wells. For this, each well of the 24-well plates was treated with 200 µl of a 0.01% poly-L-lysine solution for 10 min, washed 3 times with 1 ml of sterilized water and left to dry for 2 h. Only then could the 24-well plates be seeded with the appropriate cell lines and cultured overnight at 37 °C in 5% CO2.
On day two, the radioactive uptake assay could be performed. […]
Once the uptake medium was added to the cells, the plates were incubated at 37 °C in 5% CO2 during the required time. […] In each experiment, the transport activities were calculated after subtracting a “blank” value, corresponding to the radioactivity in the appropriate control cells (HEK293T cells that were stably or transiently transfected with one of the parent plasmids pEF6/MycHisA, pEF6HisB, pUB82 or pUB83 with no inserted cDNA) that were analyzed in parallel. […]
Supplementary Fig. 4: Transport activities for 1,5-anhydroglucitol and mannose of recombinant mouse SGLT4 and SGLT5 isoforms measured in HEK293T cells. […]

OC[C@H]1OC[C@H](O)[C@@H](O)[C@@H]1O [1,5-AG, 1,5-anhydroglucitol]
mSGLT5 Vmax (30 min, Supplementary Fig. 4): 16 pmol/min/100 000 cells | higher affinity of mouse SGLT5 than mouse SGLT4 for 1,5-AG (mouse SGLT5 versus mouse SGLT4): over tenfold
